ChEMBL document CHEMBL2157893, “A potent and orally active antagonist (SM-406/AT-406) of multiple inhibitor of apoptosis proteins (IAPs) in clinical development for cancer treatment” (J Med Chem, 2011)
Activity calls are given as the source filed them.

Key:
Mus musculus [1] = assay: Toxicity in human MDA-MB-231 cells xenografted in SCID mouse assessed weight loss at 7.5 mg/kg, iv administered once/week for 2 weeks; settings: in vivo, 336 h
MDA-MB-231 [2] = assay: Antitumor activity against human MDA-MB-231 cells xenografted in SCID mouse assessed inhibition of tumor growth at 7.5 mg/kg, iv administered once/week for 2 weeks
Mus musculus [3] = assay: Induction of PARP cleavage in human MDA-MB-231 cells xenografted in SCID mouse at 7.5 mg/kg, iv administered as single dose measured after 24 hrs by Western blot analysis; type: functional, organism-based; design: dose 7.5 mg/kg
Mus musculus [4] = assay: Induction of procaspase-8 processing in human MDA-MB-231 cells xenografted in SCID mouse at 7.5 mg/kg, iv administered as single dose measured after 24 hrs by Western blot analysis; type: functional, organism-based; design: dose 7.5 mg/kg
Mus musculus [5] = assay: Induction of degradation of cIAP1 in human MDA-MB-231 cells xenografted in SCID mouse at 7.5 mg/kg, iv administered as single dose measured after 24 hrs by Western blot analysis; type: functional, organism-based; design: dose 7.5 mg/kg
[6] = target: Baculoviral IAP repeat-containing protein 2 (Homo sapiens, UniProt Q13490); assay: Binding affinity to human cIAP1 BIR3 domain expressed in Escherichia coli BL21(DE3) assessed as dissociation constant after 2 to 3 hrs by fluorescence polarization assay
Sequence of Baculoviral IAP repeat-containing protein 2 (Q13490 whole entry, the tested form may be a part): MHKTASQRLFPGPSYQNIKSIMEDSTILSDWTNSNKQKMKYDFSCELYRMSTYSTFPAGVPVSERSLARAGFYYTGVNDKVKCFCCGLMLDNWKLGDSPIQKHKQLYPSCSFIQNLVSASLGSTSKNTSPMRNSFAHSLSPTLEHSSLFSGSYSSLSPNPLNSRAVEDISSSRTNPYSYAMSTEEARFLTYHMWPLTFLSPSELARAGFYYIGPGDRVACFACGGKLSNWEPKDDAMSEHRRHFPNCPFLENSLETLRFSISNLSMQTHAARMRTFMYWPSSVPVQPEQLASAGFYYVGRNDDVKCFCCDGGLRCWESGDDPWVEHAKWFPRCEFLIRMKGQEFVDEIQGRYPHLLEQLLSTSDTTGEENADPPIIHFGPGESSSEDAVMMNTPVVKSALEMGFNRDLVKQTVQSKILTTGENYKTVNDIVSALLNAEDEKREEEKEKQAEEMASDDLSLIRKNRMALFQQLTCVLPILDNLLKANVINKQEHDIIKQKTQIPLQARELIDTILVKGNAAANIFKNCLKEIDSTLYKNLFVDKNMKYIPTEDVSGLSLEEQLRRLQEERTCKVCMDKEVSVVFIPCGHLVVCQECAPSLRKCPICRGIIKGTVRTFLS

[7] = target: E3 ubiquitin-protein ligase XIAP (Homo sapiens, UniProt P98170); assay: Binding affinity to His6-tagged human XIAP BIR3 domain expressed in Escherichia coli BL21(DE3) assessed as dissociation constant after 2 to 3 hrs by fluorescence polarization assay
Sequence of E3 ubiquitin-protein ligase XIAP (P98170 whole entry, the tested form may be a part): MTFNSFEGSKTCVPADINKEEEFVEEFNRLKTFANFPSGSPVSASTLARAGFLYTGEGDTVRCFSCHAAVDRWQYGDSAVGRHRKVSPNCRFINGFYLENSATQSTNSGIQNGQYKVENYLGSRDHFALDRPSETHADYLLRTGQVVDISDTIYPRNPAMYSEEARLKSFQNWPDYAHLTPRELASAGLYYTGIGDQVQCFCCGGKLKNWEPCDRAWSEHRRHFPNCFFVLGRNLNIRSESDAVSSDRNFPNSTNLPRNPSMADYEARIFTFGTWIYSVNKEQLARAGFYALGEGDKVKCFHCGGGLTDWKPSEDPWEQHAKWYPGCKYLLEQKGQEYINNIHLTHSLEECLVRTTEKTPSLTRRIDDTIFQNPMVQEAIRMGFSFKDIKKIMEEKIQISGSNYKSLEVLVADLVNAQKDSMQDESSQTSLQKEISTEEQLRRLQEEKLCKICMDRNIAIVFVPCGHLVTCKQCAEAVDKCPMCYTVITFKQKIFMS

MDA-MB-231 [8] = assay: Antitumor activity against human MDA-MB-231 cells xenografted in SCID mouse assessed inhibition of tumor growth at 100 mg/kg, po administered daily for 5 days/week for 2 weeks; type: functional, organism-based; design: dose 100 mg/kg
Mus musculus [9] = assay: Induction of degradation of cIAP1 in human MDA-MB-231 cells xenografted in SCID mouse at 100 mg/kg, po administered as single dose measured after 2 hrs by Western blot analysis; type: functional, organism-based; design: dose 100 mg/kg
Mus musculus [10] = assay: Induction of procaspase-8 processing in human MDA-MB-231 cells xenografted in SCID mouse at 100 mg/kg, po administered as single dose measured after 2 hrs by Western blot analysis; type: functional, organism-based; design: dose 100 mg/kg
MDA-MB-231 [11] = assay: Induction of cell death in human MDA-MB-231 cells at 1 uM by trypan blue exclusion assay; type: functional, cell-based; settings: TDE = time-dependent effect
Mus musculus [12] = assay: Induction of PARP cleavage in human MDA-MB-231 cells xenografted in SCID mouse at 100 mg/kg, po administered as single dose measured after 16 hrs by Western blot analysis; type: functional, organism-based; design: dose 100 mg/kg
MDA-MB-231 [13] = assay: Induction of apoptosis in human MDA-MB-231 cells assessed as activation of caspase-3 activity at 1.5 uM after 12 hrs by Western blot analysis; type: functional, cell-based
Mus musculus [14] = assay: Induction of procaspase-8 processing in human MDA-MB-231 cells xenografted in SCID mouse at 100 mg/kg, po administered as single dose measured after 6 hrs by Western blot analysis; type: functional, organism-based; design: dose 100 mg/kg
MDA-MB-231 [15] = assay: Induction of apoptosis in human MDA-MB-231 cells assessed as activation of PARP cleavage at 1.5 uM after 12 hrs by Western blot analysis; type: functional, cell-based
Mus musculus [16] = assay: Induction of degradation of cIAP1 in human MDA-MB-231 cells xenografted in SCID mouse at 100 mg/kg, po administered as single dose measured after 16 hrs by Western blot analysis; type: functional, organism-based; design: dose 100 mg/kg
Mus musculus [17] = assay: Induction of PARP cleavage in human MDA-MB-231 cells xenografted in SCID mouse at 100 mg/kg, po administered as single dose measured after 2 hrs by Western blot analysis; type: functional, organism-based; design: dose 100 mg/kg
MDA-MB-231 [18] = assay: Antitumor activity against human MDA-MB-231 cells xenografted in SCID mouse assessed inhibition of tumor growth at 10 mg/kg, po administered daily for 5 days/week for 2 weeks; type: functional, organism-based; design: dose 10 mg/kg
MDA-MB-231 [19] = assay: Antitumor activity against human MDA-MB-231 cells xenografted in SCID mouse assessed inhibition of tumor growth at 30 mg/kg, po administered daily for 5 days/week for 2 weeks; type: functional, organism-based; design: dose 30 mg/kg
Mus musculus [20] = assay: Induction of PARP cleavage in human MDA-MB-231 cells xenografted in SCID mouse at 100 mg/kg, po administered as single dose measured after 6 hrs by Western blot analysis; type: functional, organism-based; design: dose 100 mg/kg
MDA-MB-231 [21] = assay: Induction of cell death in human MDA-MB-231 cells incubated for 24 hrs by trypan blue exclusion assay; type: functional, cell-based

CC(=O)O[C@@]12CO[C@@H]1C[C@H](O)[C@@]1(C)C(=O)[C@H](O)C3=C(C)[C@@H](OC(=O)[C@H](O)[C@@H](NC(=O)OC(C)(C)C)c4ccccc4)C[C@@](O)([C@@H](OC(=O)c4ccccc4)[C@H]21)C3(C)C.O.O.O [DOCETAXEL]
Toxic: Activity (Mus musculus [1])
active: TGI (MDA-MB-231 [2]) | Activity (Mus musculus [4])
inactive: Activity (Mus musculus [3]) | Activity (Mus musculus [5])

CN[C@@H](C)C(=O)N[C@H]1CN(C(=O)CC(C)C)CC[C@H]2CC[C@@H](C(=O)N[C@@H](c3ccccc3)c3cn(CCCCCCCCCCNC(=O)c4ccc(-c5c6ccc(=O)cc-6oc6cc(O)ccc56)c(C(=O)O)c4)nn3)N2C1=O
4.4 nM: Kd [7]
0.7 nM: Kd [6]

CN[C@@H](C)C(=O)N[C@H]1CN(C(=O)CC(C)C)CC[C@H]2CC[C@@H](C(=O)NC(c3ccccc3)c3ccccc3)N2C1=O
active: TGI (MDA-MB-231 [8]) | Activity (Mus musculus [9]) | Activity (Mus musculus [10]) | Activity (MDA-MB-231 [11]) tde | Activity (Mus musculus [12]) | Activity (MDA-MB-231 [13]) | Activity (Mus musculus [14]) | Activity (MDA-MB-231 [15]) | Activity (Mus musculus [16]) | Activity (Mus musculus [17]) | TGI (MDA-MB-231 [19]) | Activity (Mus musculus [20]) | Activity (MDA-MB-231 [21]) Dose-dependent effect
inactive: TGI (MDA-MB-231 [18])
